Test results taken from US9340622B2, “Synthetic immunogen useful for generating long lasting immunity and protection against pathogens” (priority 2010, dated 2016).
Read-outs that look alike come from different tables or passages of the source. Ends that are not written are not given here.

Tests used:
Bone marrow derived DCs = assay: Activation and MHC markers on bone marrow derived DCs; type: cell-based, C57BL/6 mice; settings: BMDCs day 7, treated 12 hrs
Procedure: FIG. 4. Lipidated peptides [immunogens] enhance DC maturation. (A) BALB/c mice were immunized with lipidated peptides [immunogen] and free peptides. Total splenocytes were recovered and in vitro stimulated with the lipidated and free peptides. After 48 hrs of incubation, they were harvested and stained for DC population (CD11c^+/CD40^+). CD11c^+/CD40^+ population indicates mature DCs. Lipidated immunogen constructs were able to induce DC maturation compared to their unlipidated counterparts. (B) Bone marrow derived DCs from C57BL/6 mice were cultured using standard protocol. On day 7 of culture they were treated with free or lipidated peptides for 12 hrs and then the cells were harvested and stained for activation markers. […] (C) On day 7 of culture, bone marrow derived DCs were treated with free or lipidated peptides for 12 hrs. Later on, the cells were harvested and stained for CD74 (immature MHC) and IA^b (mature MHC).

M. tuberculosis H37Rv [1] = system: M. tuberculosis H37Rv; set-up: species or system Duncan-Hartley guinea pigs; settings: guinea pig, in vivo
[2] = system: human peripheral blood mononuclear cells; assay: T cell proliferation of human PBMCs (3H-thymidine incorporation); type: cell-based; settings: compared to non-lipidated peptide counterparts, FIG. 9
M. tuberculosis H37Rv [3] = system: M. tuberculosis H37Rv; set-up: species or system mice; settings: mouse, in vivo
CD4 T cells = assay: Intracellular staining for IFN-γ in CD4 T cells; type: cell-based; settings: splenocytes of mice immunized with lipopeptide containing SEQ ID No. 1, cultured 48 h, restimulated 6 h, FIG. 6
Procedure: FIG. 6. CD4 T cells from mice immunized with immunogen containing SEQ ID No. 1 produced IFN-γ on in vitro peptide restimulation. Mice were immunized with lipopeptide containing SEQ ID No. 1. Splenocytes from the immunized mice were cultured with A) medium; B) Pam2Cys; C) non-lipidated peptide (SEQ ID No. 1); D) lipopeptide (containing SEQ ID No. 1) for 48 h. Cells were restimulated for 6 h and stained for surface CD4 and intracellular for IFN-γ. Representative flow cytometry contours depict IFN-γ producing CD4 T cells and numbers indicate their percentage.
Mice were immunized with the developed immunogenic lipopeptides (20 nmol/animal). Twenty-one days later, a booster dose (10 nmol) was administered. Animals were sacrificed 45 days post booster immunization.
Lymphocytes (2×10^6 cells/ml) were cultured with peptides in triplicates in 96 w plate for 48 h. Cells were pooled and washed twice with wash buffer (PBS containing FBS-1%). Cells were re-stimulated with PMA (50 ng/ml) and ionomycin (1 μg/ml) for 6 h/37° C. and in the last 4 h brefeldin A (10 μg/ml) was added in cultures. After 6 h of activation, cells, were washed twice with staining buffer (BSA-1%, NaN3-0.01% in PBS). […] Finally, cells were fixed in parafolmaldehyde-1% and acquired on FACS Aria II and data was analyzed by FACS DIVA (BD Biosciences, San Jose, Calif.).

[4] = compared to free peptide, FIG. 4C

Compound | expression of CD74 (immature MHC) (Bone marrow derived DCs; [4]) | expression of IA^b (mature MHC) (Bone marrow derived DCs; [4]) | expression of CD80, CD86, CD40 (Bone marrow derived DCs; compared to p91 treated cells, FIG. 4B) | Mycobacterial load in lungs (CFU) (M. tuberculosis H37Rv [1]) | proliferation of human PBMCs from sputum positive tuberculosis patient [2] | Mycobacterial load in lungs (CFU) (M. tuberculosis H37Rv [3]) | production of IFN-γ in CD4 T cells (CD4 T cells)
L91: immunogen wherein X1=SEQ ID. No. 1 and X2=0; peptide linked via two serines to Pam2Cys (SEFAYGSFVRTVSLPVGADE; also: linked via two serines to Pam2Cys, end not given here; listed as Mycobacterium tuberculosis) | decrease in expression | enhanced expression | enhanced expression | significantly lower bacterial load in lungs | enhanced the proliferation | restricted the growth of mycobacterium significantly | predominant production of IFN-γ
CCCCCCCCCCCCCCCC(=O)OCC(CSC[C@H](N)C(=O)O)OC(=O)CCCCCCCCCCCCCCC (stereo partly drawn) [Pam2Cys, S-[2,3-bis(palmitoyloxy)propyl]cysteine, reference compound] | – | – | – | – | – | – | did not elicit production of IFN-γ
